Here are results for 19 compounds from patent US5783575A, “Antagonists, their preparation and use” (Novo Nordisk A/S, priority 1994, dated 1998).

By pIC50 is commonly meant the IC50 on a negative log10 scale, so that one unit is a factor of ten. Low readings indicate a large IC50, high ones a small IC50.

For data set [1], the target named is T1, mGluR1a (Rattus norvegicus, UniProt P23385).
T1 construct: expressed in transfected cells; host or cells: BHK 570 (baby hamster kidney) cells
In words: Inhibition of PI-hydrolysis in BHK 570 cells expressing mGluR1a receptors (antagonist activity vs 10 μM glutamate). It counts as cell-based.

The subject of data set [2] is metabotropic glutamate receptor at the subtypes mGluR1 and mGluR5. To be noted: Thomsen and Suzdak 1993; cited from earlier work.
Data set [3] relates to responses evoked by the ionotropic glutamate receptor agonist, AMPA. To be noted: Mori-Okamoto et al. 1993; cited from earlier work.
The next data set relates to GABAA. To be noted: neurones, nucleus of the Solitary tract; cited from earlier work.
A further data set relates to currents evoked by AMPA. To be noted: neurones, nucleus of the Solitary tract; cited from earlier work.
Data set [4] addresses T1, mGluR1a. In words: Testing for non competitiveness: mGluR1a-mediated PI-hydrolysis, glutamate dose-response with and without antagonist. The format is cell-based. To be noted: for effect on maximal response for glutamate / effect on the potency of glutamate / pharmacological profile: BHK cells expressing mGluR1a; for Emax: basal subtracted.
The target of data set [5] is T1, mGluR1a. In words: [3H]Glutamate binding to mGluR1a. To be noted: BHK cells expressing mGluR1a. Here is the method:
Membranes prepared from BHK cells expressing mGluR1a were prepared as described (Thomsen, C. et al. (1993), Brain Res. 619, 22-28). […] IC50 values were calculated by a non-linear regression analysis using the GraphPad-Prism program (I.S.I., Philadelphia). Inhibitory constants (Ki) were calculated from the IC50 values using the equation: […]

The subject of data set [6] is metabotropic glutamate receptor. The settings on record: cited from earlier work.
For another data set, the system named is mGluR1/mGluR5. To be noted: Mori-Okamoto et al. 1993; cited from earlier work.
A further data set addresses Bz. As to the kind of experiment: Affinity for Bz receptor (Table 3). The format is binding.
The next data set deals with AMPA. As to the kind of experiment: Affinity for AMPA receptor (Table 3). The format is binding.
The target in another data set is KAIN. In words: Affinity for KAIN receptor (Table 3). The format is binding.
The target of the next data set is CPP. In words: Affinity for CPP receptor (Table 3). It counts as binding.
The target of the next data set is TCP. In words: Affinity for TCP receptor (Table 3). The format is binding.
For a further data set, the target named is CNQX. In words: Affinity for CNQX receptor (Table 3). It counts as binding.
Data set [7] addresses T1, mGluR1a. To be noted: BHK cells expressing mGluR1a, Thomsen and Suzdak 1993; cited from earlier work.
Data set [8] deals with T1, mGluR1a. The settings on record: competitive antagonist, Thomsen and Suzdak 1993; cited from earlier work.
Another data set concerns control BHK cells. The settings on record: 1 mM; cited from earlier work.
The test system of another data set is mGluR1α. To be noted: 1 mM, BHK cells expressing mGluR1α; cited from earlier work.
The test system of a further data set is NMDA-induced responses. The settings on record: a number of preparations; cited from earlier work.
Data set [9] concerns release of dopamine in the rat brain. To be noted: Sacaan et al. 1992; cited from earlier work.
Another data set relates to MCAO model in mice. To be noted: Chiamulera et al. 1992; cited from earlier work.
The test system of a further data set is nerve cell cultures. The settings on record: Koh et al. 1991; cited from earlier work.
Setting [10] is: read-out: response to glutamate relative to the maximal response evoked by 300 μM glutamate, antagonist 10 μM, glutamate 0.
Setting [11] is: read-out: response to glutamate relative to the maximal response evoked by 300 μM glutamate, antagonist 10 μM, glutamate 3.
The mark [12] stands for this setting: read-out: response to glutamate relative to the maximal response evoked by 300 μM glutamate, antagonist 10 μM, glutamate 10.
The mark [13] stands for this setting: read-out: response to glutamate relative to the maximal response evoked by 300 μM glutamate, antagonist 10 μM, glutamate 30.
Setting [14] is: read-out: response to glutamate relative to the maximal response evoked by 300 μM glutamate, antagonist 10 μM, glutamate 100.
The mark [15] stands for this setting: read-out: response to glutamate relative to the maximal response evoked by 300 μM glutamate, antagonist 10 μM, glutamate 300.

pIC50: −log10 of the molar value. Like-named read-outs stand apart in the source and are kept apart here.

T1 sequence (P23385 19-1199): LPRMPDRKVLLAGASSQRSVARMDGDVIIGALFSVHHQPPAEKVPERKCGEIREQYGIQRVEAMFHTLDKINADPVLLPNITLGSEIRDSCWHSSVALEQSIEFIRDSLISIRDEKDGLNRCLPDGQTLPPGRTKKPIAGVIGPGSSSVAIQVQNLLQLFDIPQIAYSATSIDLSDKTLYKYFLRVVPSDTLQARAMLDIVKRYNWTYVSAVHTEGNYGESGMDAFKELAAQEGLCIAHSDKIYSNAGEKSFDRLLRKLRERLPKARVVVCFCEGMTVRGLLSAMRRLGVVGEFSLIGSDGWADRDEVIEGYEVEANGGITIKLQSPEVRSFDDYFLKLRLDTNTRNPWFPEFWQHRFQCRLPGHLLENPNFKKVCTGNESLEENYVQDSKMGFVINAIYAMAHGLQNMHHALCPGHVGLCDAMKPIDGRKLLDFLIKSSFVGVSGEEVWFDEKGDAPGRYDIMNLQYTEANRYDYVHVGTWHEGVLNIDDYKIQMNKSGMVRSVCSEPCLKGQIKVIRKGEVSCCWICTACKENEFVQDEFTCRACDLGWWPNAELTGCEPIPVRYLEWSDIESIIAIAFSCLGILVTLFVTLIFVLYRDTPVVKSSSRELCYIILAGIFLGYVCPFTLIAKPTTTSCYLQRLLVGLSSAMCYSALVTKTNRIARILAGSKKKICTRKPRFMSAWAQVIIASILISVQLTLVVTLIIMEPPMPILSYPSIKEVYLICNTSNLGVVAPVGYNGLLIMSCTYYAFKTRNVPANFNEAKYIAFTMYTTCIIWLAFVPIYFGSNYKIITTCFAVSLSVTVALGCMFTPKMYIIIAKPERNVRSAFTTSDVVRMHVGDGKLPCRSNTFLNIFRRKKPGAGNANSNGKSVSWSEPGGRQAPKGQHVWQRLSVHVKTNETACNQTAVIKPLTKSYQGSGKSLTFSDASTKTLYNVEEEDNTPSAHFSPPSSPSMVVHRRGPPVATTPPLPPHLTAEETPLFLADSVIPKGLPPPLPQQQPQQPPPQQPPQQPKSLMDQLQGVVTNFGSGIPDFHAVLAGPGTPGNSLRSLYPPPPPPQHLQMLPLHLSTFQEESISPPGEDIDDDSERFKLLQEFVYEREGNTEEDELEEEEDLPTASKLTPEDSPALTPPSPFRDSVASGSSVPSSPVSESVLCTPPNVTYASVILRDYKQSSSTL

Take `c1ccc(Cn2c3ccccc3c3cc(-c4nnn[nH]4)sc32)cc1` [Compound 25, 8-Benzyl-2-(5-tetrazolyl)thieno[2,3-b]indole]: the pIC50 at mGluR1a [1] is 5.05.
Turning to `N[C@H](C(=O)O)c1ccc(C(=O)O)cc1` [Compound S-4CPG, S-4-carboxyphenyl glycine], in data set [2], the “antagonism of trans ACPD stimulated phosphoinositide hydrolysis” value is reported as “antagonise trans ACPD stimulated phosphoinositide hydrolysis”.
As to `N[C@@]1(C(=O)O)CC[C@@H](C(=O)O)C1` [(1S,3R)-ACPD], the “effect on responses evoked by AMPA” value in data set [3] is on record as “suppress responses evoked by the ionotropic glutamate receptor agonist, AMPA”. Moreover, the “effect on GABAA-mediated currents” value in the data set with GABAA is listed as “attenuated”. Moreover, in the data set with currents evoked by AMPA, the “effect on currents evoked by AMPA” value was “potentiated”.
As for `O=C(O)c1cc2c3ccccc3n(Cc3ccccc3)c2nc1N1CCOCC1` [Compound 3b, 9-Benzyl-2-morpholinopyridino[2,3-b]indole-3-carboxylic acid], at mGluR1a [1], the negative logarithm of the IC50 (pIC50) was 5.00. For the same compound, the “effect on maximal response for glutamate” value at mGluR1a [4] was “dose-dependently decreased the maximal response for glutamate”. In addition, on mGluR1a [4], the “effect on the potency of glutamate” value was “did not affect the potency of glutamate”. Besides, on mGluR1a [4], the pharmacological profile entry is “non-competitive antagonists”. Moreover, the Emax on mGluR1a [4] (setting [10]) is 2%; on mGluR1a [4] (setting [11]), 5%; at mGluR1a [4] (setting [12]), 16%; at mGluR1a [4] (setting [13]) it was 53%; at mGluR1a [4] (setting [14]) it was 75%; at mGluR1a [4] (setting [15]), 77%. Further, the “displacement of [3H]glutamate binding” value at mGluR1a [5] is on record as “did not displace”.
For `N[C@@H](CP(=O)(O)O)C(=O)O` [L-AP3, L-2-amino-3-phosphonopropionic acid], the “activity at metabotropic receptors” value in data set [6] is “partial agonist”. Moreover, the “antagonism of mGluR1/mGluR5” value with mGluR1/mGluR5 is listed as “antagonist”.
With `C[C@@](N)(C(=O)O)c1ccc(C(=O)O)cc1` [S-MCPG, S-alpha-methyl-4-carboxyphenyl glycine], the “antagonism of trans ACPD stimulated phosphoinositide hydrolysis” value in data set [2] is listed as “antagonise trans ACPD stimulated phosphoinositide hydrolysis”.
`CN1CCN(C(=O)c2cc3c4ccccc4n(C)c3s2)CC1` [Compound 31, 8-Methyl-2-(4-methyl-1-piperazinylcarbonyl)thieno[2,3-b]indole]: at mGluR1a [1], the pIC50 is 4.44.
Take `O=C(O)c1cc2c3ccccc3n(Cc3ccccc3)c2s1` [Compound 8, 8-Benzylthieno[2,3-b]indole-2-carboxylic acid]: the pIC50 is 4.68 against mGluR1a [1]; 3.33 on Bz; less than 3.01 at AMPA; 3.06 against KAIN; 3.52 against CPP; less than 3.01 on TCP. At CNQX, this compound gave a pIC50 of less than 3.01. The “receptor selectivity for mGluR1a” value on mGluR1a [1] (based on Table 3, criterion 5-fold more potent at mGluR1a) is reported as “considered selective for mGluR1a”. Besides, at mGluR1a [4], the “effect on maximal response for glutamate” value is “dose-dependently decreased the maximal response for glutamate”. At mGluR1a [4], the “effect on the potency of glutamate” value is “did not affect the potency of glutamate”. Besides, at mGluR1a [4], the pharmacological profile result is “non-competitive antagonists”. Further, the Emax worked out at 2% on mGluR1a [4] (setting [10]); 5% on mGluR1a [4] (setting [11]); 35% on mGluR1a [4] (setting [12]); 65% at mGluR1a [4] (setting [13]); 92% at mGluR1a [4] (setting [14]); 89% on mGluR1a [4] (setting [15]). Besides, the Emax came out at 2% on mGluR1a [4] (read-out: response to glutamate relative to the maximal response evoked by 300 μM glutamate, antagonist 30 μM, glutamate 0); 4% on mGluR1a [4] (read-out: response to glutamate relative to the maximal response evoked by 300 μM glutamate, antagonist 30 μM, glutamate 3); 22% at mGluR1a [4] (read-out: response to glutamate relative to the maximal response evoked by 300 μM glutamate, antagonist 30 μM, glutamate 10); 58% at mGluR1a [4] (read-out: response to glutamate relative to the maximal response evoked by 300 μM glutamate, antagonist 30 μM, glutamate 30); 64% on mGluR1a [4] (read-out: response to glutamate relative to the maximal response evoked by 300 μM glutamate, antagonist 30 μM, glutamate 100); 66% at mGluR1a [4] (read-out: response to glutamate relative to the maximal response evoked by 300 μM glutamate, antagonist 30 μM, glutamate 300). In addition, the Emax came to 5% at mGluR1a [4] (read-out: response to glutamate relative to the maximal response evoked by 300 μM glutamate, antagonist 100 μM, glutamate 0); 2% on mGluR1a [4] (read-out: response to glutamate relative to the maximal response evoked by 300 μM glutamate, antagonist 100 μM, glutamate 3); 1% on mGluR1a [4] (read-out: response to glutamate relative to the maximal response evoked by 300 μM glutamate, antagonist 100 μM, glutamate 10); 24% on mGluR1a [4] (read-out: response to glutamate relative to the maximal response evoked by 300 μM glutamate, antagonist 100 μM, glutamate 30); 34% on mGluR1a [4] (read-out: response to glutamate relative to the maximal response evoked by 300 μM glutamate, antagonist 100 μM, glutamate 100); 38% at mGluR1a [4] (read-out: response to glutamate relative to the maximal response evoked by 300 μM glutamate, antagonist 100 μM, glutamate 300). The “displacement of [3H]glutamate binding” value at mGluR1a [5] is “did not displace”.
For `N[C@H](C(=O)O)c1ccc(C(=O)O)c(O)c1` [Compound S-4C3HPG, S-4-carboxy-3-hydroxyphenyl glycine], the “antagonism of trans ACPD stimulated phosphoinositide hydrolysis” value in data set [2] is reported as “antagonise trans ACPD stimulated phosphoinositide hydrolysis”.
As for `C=C(C)[C@H]1CN[C@H](C(=O)O)[C@H]1CC(=O)O` [kainate], in [6] (selective ionotropic glutamate receptor agonists), the “effect on metabotropic glutamate receptors” value was “little effect”.
On to `NC(C(=O)O)c1ccc(C(=O)O)c(O)c1` (stereo not shown) [4-carboxy-3-hydroxyphenylglycine], for which, on mGluR1a [7], the “effect on maximal response to glutamate” value is on record as “not affected” and the “effect on potency of glutamate to stimulate PI-hydrolysis” value was “decreased”. Besides, the “displacement of [3H]glutamate binding” value on mGluR1a [8] is “displaced [^3 H]glutamate binding from mGluR1a with an affinity which was similar to the functional antagonist potency”.
Take `NC(C(=O)O)c1cc(O)no1` (stereo not shown) [ibotenate]: the “agonism on the metabotropic glutamate receptor” value in data set [6] was “non-selective agonists”.
For `Cn1c2ccc(Cl)cc2c2cc(C(=O)O)sc21` [Compound 54, 5-Chloro-8-methylthieno[2,3-b]indole-2-carboxylic acid], the pIC50 against mGluR1a [1] was 5.14.
Turning to `Cn1c2ccccc2c2cc(C(=O)N3CCOCC3)sc21` [Compound 27, 8-Methyl-2-morpholinocarbonylthieno[2,3-b]indole], the pIC50 against mGluR1a [1] was 5.28.
As for `N[C@@H](Cn1oc(=O)[nH]c1=O)C(=O)O` [quisqualate], in the data set on control BHK cells, the “stimulation of PI-hydrolysis” value is given as “no stimulation”. Further, the “agonism on the metabotropic glutamate receptor” value in data set [6] is “non-selective agonists”. Also, the “increase over basal PI-hydrolysis” value with mGluR1α was 6-8 fold.
On to `N[C@@H](CCC(=O)O)C(=O)O` [glutamate, L-glutamate], for which the “increase over basal PI-hydrolysis” value in the data set with mGluR1α is 6-8 fold.
Consider `CCOC(=O)C(C#N)=Cc1c(Cl)n(Cc2ccccc2)c2ccccc12` [Compound 1a, Ethyl 2-cyano-3-(1-benzyl-2-chloro-3-indolyl)acrylate], for which, at mGluR1a [1], the pIC50 was 5.66.
In the case of `N[C@@]1(C(=O)O)CC[C@@H](C(=O)O)C1` (relative stereo) [(±)-trans-ACPD], in the data set on NMDA-induced responses, the “effect on NMDA-induced responses” value is “enhanced”.
`N[C@@]1(C(=O)O)CC[C@@H](C(=O)O)C1` [trans-ACPD, trans 1S,3R-1-aminocyclopentane-1,3-dicarboxylicacid]: the “effect on release of dopamine” value in data set [9] is on record as “increase release of dopamine”. The neuroprotection entry in the data set on MCAO model in mice is “neuroprotective”. Besides, the “inhibition of NMDA induced neurotoxicity” value with nerve cell cultures is “inhibit NMDA induced neurotoxicity”.
